Measurements reported in paper PMC3101112 (Cancer Management and Research, 2011).

Assays:
p70S6K = p70S6K (Homo sapiens, UniProt P23443); test: Biochemical inhibition profile, p70S6K; conditions: read-out: p70S6K percent inhibition at 20 μM
[1] = test system: pERK T202Y204 in HUVEC (with BSA); test: Cell-based target inhibition assay, HUVEC, VEGF, pERK with BSA; set-up: species or system human; conditions: Homo sapiens, read-out: Cell-Based Target Inhibition Assays IC50, pERK T202Y204 (with BSA)
MV4-11 = test: cells; assay type: cell-based; conditions: Homo sapiens, MV4-11, read-out: Cell-Based Antiproliferation Assay IC50
EPHA8 = EPHA8 (Homo sapiens, UniProt P29322); test: Biochemical inhibition profile, EPHA8
pERK T202Y204 in HUVEC = test: Cell-based target inhibition assay, HUVEC, VEGF, pERK; set-up: species or system human; conditions: Homo sapiens, read-out: Cell-Based Target Inhibition Assays IC50, pERK T202Y204
pFLT3 = conditions: Western blotting; 200 mg; 10/13 patients; cited from earlier work
RAF = test: Biochemical inhibition profile, RAF; set-up: species or system Human; conditions: read-out: Biochemical Inhibition Profile IC50, RAF

Chain of p70S6K (P23443 whole entry): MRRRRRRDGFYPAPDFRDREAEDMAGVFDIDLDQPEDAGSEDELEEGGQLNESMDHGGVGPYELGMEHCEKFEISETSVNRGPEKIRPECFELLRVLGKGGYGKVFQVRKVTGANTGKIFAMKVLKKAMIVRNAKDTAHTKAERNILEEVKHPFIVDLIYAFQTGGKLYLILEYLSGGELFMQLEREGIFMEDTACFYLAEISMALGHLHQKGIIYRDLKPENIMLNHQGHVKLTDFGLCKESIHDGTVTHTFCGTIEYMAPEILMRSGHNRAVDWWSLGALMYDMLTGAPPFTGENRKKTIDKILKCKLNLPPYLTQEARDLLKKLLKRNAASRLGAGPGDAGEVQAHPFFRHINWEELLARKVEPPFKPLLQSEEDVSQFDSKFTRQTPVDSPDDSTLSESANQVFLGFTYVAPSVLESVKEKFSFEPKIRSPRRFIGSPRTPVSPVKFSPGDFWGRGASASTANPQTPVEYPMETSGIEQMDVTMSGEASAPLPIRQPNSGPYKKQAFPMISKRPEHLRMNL
Chain of EPHA8 (P29322 28-1005): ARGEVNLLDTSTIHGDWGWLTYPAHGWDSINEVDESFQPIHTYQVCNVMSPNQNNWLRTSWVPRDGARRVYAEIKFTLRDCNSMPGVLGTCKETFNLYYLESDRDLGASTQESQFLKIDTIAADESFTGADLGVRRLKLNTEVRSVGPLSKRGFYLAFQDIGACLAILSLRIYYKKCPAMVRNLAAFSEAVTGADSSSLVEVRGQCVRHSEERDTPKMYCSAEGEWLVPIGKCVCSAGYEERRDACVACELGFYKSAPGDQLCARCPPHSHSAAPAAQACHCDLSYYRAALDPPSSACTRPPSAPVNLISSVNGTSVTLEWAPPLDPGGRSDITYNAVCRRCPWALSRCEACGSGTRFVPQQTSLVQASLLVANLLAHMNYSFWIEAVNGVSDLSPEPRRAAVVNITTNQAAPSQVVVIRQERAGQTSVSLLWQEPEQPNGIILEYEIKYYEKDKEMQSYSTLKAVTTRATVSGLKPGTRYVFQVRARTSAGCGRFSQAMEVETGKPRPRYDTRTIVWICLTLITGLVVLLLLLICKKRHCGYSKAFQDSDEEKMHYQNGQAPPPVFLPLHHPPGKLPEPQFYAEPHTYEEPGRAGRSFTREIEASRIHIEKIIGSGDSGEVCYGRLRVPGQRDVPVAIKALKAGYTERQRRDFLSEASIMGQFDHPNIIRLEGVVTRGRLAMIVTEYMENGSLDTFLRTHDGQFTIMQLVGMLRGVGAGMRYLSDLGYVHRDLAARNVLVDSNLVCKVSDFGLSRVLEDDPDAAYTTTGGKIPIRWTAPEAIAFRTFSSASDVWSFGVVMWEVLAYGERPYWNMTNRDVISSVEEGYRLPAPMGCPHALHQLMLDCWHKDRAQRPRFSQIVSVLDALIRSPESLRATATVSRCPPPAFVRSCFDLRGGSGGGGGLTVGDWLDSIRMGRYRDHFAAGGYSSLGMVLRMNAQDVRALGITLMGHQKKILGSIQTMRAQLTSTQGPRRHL

inhibition at 20 µM (p70S6K) [%] | IC50 (MV4-11) [nM] | IC50 (EPHA8) [nM] | IC50 (RAF) [nM] | Structure (SMILES) | IC50 [1] [nM] | IC50 (pERK T202Y204 in HUVEC) [nM] | Patients with reduction of pFLT3 (pFLT3) [%]
75.6 | 11.7 | – | – | CNC(=O)c1cc(Oc2ccc(NC(=O)Nc3ccc(Cl)c(C(F)(F)F)c3)cc2)ccn1 [Sorafenib] | 38 | – | –
92.3 | 19.6 | > 20000 | > 20000 | CCN(CC)CCNC(=O)c1c(C)[nH]c(/C=C2\C(=O)Nc3ccc(F)cc32)c1C [Sunitinib, reference compound] | – | 28.7 | 77
